# From PubChem BioAssay (NCI)
#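 Five compound concentrations were applied to cells in 96-well plates for 48 hours; endpoints were derived by simple linear interpolation of the resulting dose-response curve. GI50: concentration for 50% inhibition of growth. TGI is the concentration that stops growth completely.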
# How the values were obtained:
# Experiment in all cases: growth of human tumour cells (NCI), 48 h
# UACC-257 melanoma = test system: UACC-257 melanoma
# MDA-MB-231 breast = test system: MDA-MB-231 breast
# MCF7 breast = test system: MCF7 breast
# HOP-92 NSCLC = test system: HOP-92 NSCLC
# CCRF-CEM leukemia = test system: CCRF-CEM leukemia
# HCT-116 colon = test system: HCT-116 colon
# COLO 205 colon = test system: COLO 205 colon
# HOP-62 NSCLC = test system: HOP-62 NSCLC
# OVCAR-8 ovarian = test system: OVCAR-8 ovarian
# SR leukemia = test system: SR leukemia
# MOLT-4 leukemia = test system: MOLT-4 leukemia
# SNB-19 CNS = test system: SNB-19 CNS
# CAKI-1 renal = test system: CAKI-1 renal
# K-562 leukemia = test system: K-562 leukemia
# A549 NSCLC = test system: A549 NSCLC
# SF-268 CNS = test system: SF-268 CNS
# NCI-H226 lung = test system: NCI-H226 lung
# SK-OV-3 ovarian = test system: SK-OV-3 ovarian
# EKVX NSCLC = test system: EKVX NSCLC
# MDA-MB-435 = test system: MDA-MB-435
# RXF 393 renal = test system: RXF 393 renal
# T-47D breast = test system: T-47D breast
# NCI/ADR-RES ovarian = test system: NCI/ADR-RES ovarian
# RPMI-8226 leukemia = test system: RPMI-8226 leukemia
# HL-60(TB) leukemia = test system: HL-60(TB) leukemia
# KM12 colon = test system: KM12 colon
# HCC-2998 colon = test system: HCC-2998 colon
# HCT-15 colon = test system: HCT-15 colon
# OVCAR-5 ovarian = test system: OVCAR-5 ovarian
# SF-295 CNS = test system: SF-295 CNS
# PC-3 prostate = test system: PC-3 prostate
# NCI-H460 lung = test system: NCI-H460 lung
# NCI-H23 lung = test system: NCI-H23 lung
# M14 melanoma = test system: M14 melanoma
# U251 CNS = test system: U251 CNS
# OVCAR-3 ovarian = test system: OVCAR-3 ovarian
# ACHN renal = test system: ACHN renal
# SK-MEL-28 melanoma = test system: SK-MEL-28 melanoma
# UO-31 renal = test system: UO-31 renal
# UACC-62 melanoma = test system: UACC-62 melanoma
# DU-145 prostate = test system: DU-145 prostate
# LOX IMVI melanoma = test system: LOX IMVI melanoma
# MALME-3M melanoma = test system: MALME-3M melanoma
# SN12C renal = test system: SN12C renal
# HT29 colon = test system: HT29 colon
# TK-10 renal = test system: TK-10 renal
# HS 578T breast = test system: HS 578T breast
# SF-539 CNS = test system: SF-539 CNS
# BT-549 breast = test system: BT-549 breast
# 786-0 renal = test system: 786-0 renal
# SK-MEL-2 melanoma = test system: SK-MEL-2 melanoma
# NCI-H522 lung = test system: NCI-H522 lung
# IGROV1 ovarian = test system: IGROV1 ovarian
# SK-MEL-5 melanoma = test system: SK-MEL-5 melanoma
# OVCAR-4 ovarian = test system: OVCAR-4 ovarian
# A498 renal = test system: A498 renal
# SW-620 colon = test system: SW-620 colon
# SNB-75 CNS = test system: SNB-75 CNS
smiles,measurement,setting,value
N#CSC1CCCCNC1=O (configuration not stated),TGI,UACC-257 melanoma,34.6 µM
same,TGI,MDA-MB-231 breast,33 µM
same,TGI,MCF7 breast,18.3 µM
same,TGI,HOP-92 NSCLC,20.9 µM
same,TGI,CCRF-CEM leukemia,34.8 µM
same,TGI,HCT-116 colon,> 100 µM
same,TGI,COLO 205 colon,30.2 µM
same,TGI,HOP-62 NSCLC,41.8 µM
same,TGI,OVCAR-8 ovarian,33.6 µM
same,TGI,SR leukemia,38.9 µM
same,TGI,MOLT-4 leukemia,15 µM
same,TGI,SNB-19 CNS,30.2 µM
same,TGI,CAKI-1 renal,31.8 µM
same,TGI,K-562 leukemia,62.3 µM
same,TGI,A549 NSCLC,60 µM
same,TGI,SF-268 CNS,26.2 µM
same,TGI,NCI-H226 lung,25.7 µM
same,TGI,SK-OV-3 ovarian,21.9 µM
same,TGI,EKVX NSCLC,37.5 µM
same,TGI,MDA-MB-435,34.8 µM
same,TGI,RXF 393 renal,34 µM
same,TGI,T-47D breast,52.5 µM
same,TGI,NCI/ADR-RES ovarian,29.1 µM
same,TGI,RPMI-8226 leukemia,29.3 µM
same,TGI,HL-60(TB) leukemia,87.4 µM
same,TGI,KM12 colon,31.3 µM
same,TGI,HCC-2998 colon,32.4 µM
same,TGI,HCT-15 colon,28.6 µM
same,TGI,OVCAR-5 ovarian,13.2 µM
same,TGI,SF-295 CNS,30.7 µM
same,TGI,PC-3 prostate,34 µM
same,TGI,NCI-H460 lung,28.7 µM
same,TGI,NCI-H23 lung,24.4 µM
same,TGI,M14 melanoma,39.3 µM
same,TGI,U251 CNS,42.6 µM
same,TGI,OVCAR-3 ovarian,29.5 µM
same,TGI,ACHN renal,29.9 µM
same,TGI,SK-MEL-28 melanoma,28.1 µM
same,TGI,UO-31 renal,31.1 µM
same,TGI,UACC-62 melanoma,29.1 µM
same,TGI,DU-145 prostate,32.8 µM
same,TGI,LOX IMVI melanoma,> 100 µM
same,TGI,MALME-3M melanoma,31.4 µM
same,TGI,SN12C renal,30.8 µM
same,TGI,HT29 colon,26.5 µM
same,TGI,TK-10 renal,30.7 µM
same,TGI,HS 578T breast,50.4 µM
same,TGI,SF-539 CNS,26.5 µM
same,TGI,BT-549 breast,21.5 µM
same,TGI,786-0 renal,32.6 µM
same,TGI,SK-MEL-2 melanoma,27 µM
same,TGI,NCI-H522 lung,21.3 µM
O=S(=O)(NC1=NCCN1C(=S)SN1CCn2c1nsc2=S)c1cccc(Cl)c1,GI50,UACC-257 melanoma,18.6 µM
same,TGI,UACC-257 melanoma,39.5 µM
same,GI50,MDA-MB-231 breast,15.3 µM
same,TGI,MDA-MB-231 breast,50.7 µM
same,GI50,MCF7 breast,15.9 µM
same,TGI,MCF7 breast,36.3 µM
same,GI50,HOP-92 NSCLC,25.4 µM
same,TGI,HOP-92 NSCLC,71.3 µM
same,GI50,CCRF-CEM leukemia,3.81 µM
same,TGI,CCRF-CEM leukemia,> 100 µM
same,GI50,HCT-116 colon,13.2 µM
same,TGI,HCT-116 colon,28.1 µM
same,GI50,COLO 205 colon,7.48 µM
same,TGI,COLO 205 colon,20.7 µM
same,GI50,HOP-62 NSCLC,18.5 µM
same,TGI,HOP-62 NSCLC,37.6 µM
same,GI50,OVCAR-8 ovarian,26.4 µM
same,TGI,OVCAR-8 ovarian,> 100 µM
same,GI50,SR leukemia,4.89 µM
same,TGI,SR leukemia,50.7 µM
same,GI50,MOLT-4 leukemia,12.8 µM
same,TGI,MOLT-4 leukemia,> 100 µM
same,GI50,SNB-19 CNS,19.1 µM
same,TGI,SNB-19 CNS,44.4 µM
same,GI50,IGROV1 ovarian,12.4 µM
same,TGI,IGROV1 ovarian,36.8 µM
same,GI50,CAKI-1 renal,6.24 µM
same,TGI,CAKI-1 renal,23.5 µM
same,GI50,K-562 leukemia,13.4 µM
same,TGI,K-562 leukemia,> 100 µM
same,GI50,A549 NSCLC,30.3 µM
same,TGI,A549 NSCLC,91.2 µM
same,GI50,SF-268 CNS,20.2 µM
same,TGI,SF-268 CNS,46.7 µM
same,GI50,NCI-H226 lung,19 µM
same,TGI,NCI-H226 lung,55.7 µM
same,GI50,EKVX NSCLC,38.7 µM
same,TGI,EKVX NSCLC,> 100 µM
same,GI50,MDA-MB-435,9.69 µM
same,TGI,MDA-MB-435,27.7 µM
same,GI50,RXF 393 renal,4.04 µM
same,TGI,RXF 393 renal,21.6 µM
same,GI50,T-47D breast,6.81 µM
same,TGI,T-47D breast,25.7 µM
same,GI50,NCI/ADR-RES ovarian,21.4 µM
same,TGI,NCI/ADR-RES ovarian,69.3 µM
same,GI50,RPMI-8226 leukemia,5.05 µM
same,TGI,RPMI-8226 leukemia,> 100 µM
same,GI50,HL-60(TB) leukemia,13.1 µM
same,TGI,HL-60(TB) leukemia,80.5 µM
same,GI50,KM12 colon,16.6 µM
same,TGI,KM12 colon,34.1 µM
same,GI50,HCC-2998 colon,22.5 µM
same,TGI,HCC-2998 colon,37.3 µM
same,GI50,HCT-15 colon,11.9 µM
same,TGI,HCT-15 colon,26.7 µM
same,GI50,OVCAR-5 ovarian,19.7 µM
same,TGI,OVCAR-5 ovarian,39.2 µM
same,GI50,SK-MEL-5 melanoma,16.7 µM
same,TGI,SK-MEL-5 melanoma,31.9 µM
same,GI50,SF-295 CNS,21.8 µM
same,TGI,SF-295 CNS,58.1 µM
same,GI50,PC-3 prostate,15.4 µM
same,TGI,PC-3 prostate,47.2 µM
same,GI50,NCI-H460 lung,22.5 µM
same,TGI,NCI-H460 lung,72.9 µM
same,GI50,M14 melanoma,15.8 µM
same,TGI,M14 melanoma,33.2 µM
same,GI50,U251 CNS,13.6 µM
same,TGI,U251 CNS,27.8 µM
same,GI50,OVCAR-3 ovarian,12.9 µM
same,TGI,OVCAR-3 ovarian,28.5 µM
same,GI50,ACHN renal,13.8 µM
same,TGI,ACHN renal,30.6 µM
same,GI50,OVCAR-4 ovarian,22.2 µM
same,TGI,OVCAR-4 ovarian,54.6 µM
same,GI50,A498 renal,34.3 µM
same,TGI,A498 renal,81.5 µM
same,GI50,SK-MEL-28 melanoma,21.4 µM
same,TGI,SK-MEL-28 melanoma,39.7 µM
same,GI50,UO-31 renal,14.4 µM
same,TGI,UO-31 renal,28.6 µM
same,GI50,UACC-62 melanoma,15.4 µM
same,TGI,UACC-62 melanoma,34.3 µM
same,GI50,DU-145 prostate,22.2 µM
same,TGI,DU-145 prostate,64.6 µM
same,GI50,LOX IMVI melanoma,10.7 µM
same,TGI,LOX IMVI melanoma,22.9 µM
same,GI50,SW-620 colon,22.9 µM
same,TGI,SW-620 colon,> 100 µM
same,GI50,SN12C renal,14.9 µM
same,TGI,SN12C renal,40.6 µM
same,GI50,HT29 colon,20.5 µM
same,TGI,HT29 colon,74 µM
same,GI50,TK-10 renal,11.5 µM
same,TGI,TK-10 renal,28.5 µM
same,GI50,HS 578T breast,39.3 µM
same,TGI,HS 578T breast,> 100 µM
same,GI50,SNB-75 CNS,29.2 µM
same,TGI,SNB-75 CNS,55.6 µM
same,GI50,SF-539 CNS,19.4 µM
same,TGI,SF-539 CNS,34.2 µM
same,GI50,BT-549 breast,22.3 µM
same,TGI,BT-549 breast,68.4 µM
same,GI50,786-0 renal,19.9 µM
same,TGI,786-0 renal,55.3 µM
same,GI50,SK-MEL-2 melanoma,26 µM
same,TGI,SK-MEL-2 melanoma,98.9 µM
same,GI50,NCI-H522 lung,5.58 µM
same,TGI,NCI-H522 lung,18.4 µM
